Laboratory results reported in PMC12648443, “Modifications of NU-9, a potent protein aggregation inhibitor. Properties and activity in a cellular model of amyotrophic lateral sclerosis” (Bioorganic chemistry, 2025).

Experiments:
[1] = In vitro cytotoxicity, CellTiter-Glo, HEK293; format: cell-based; conditions: human, HEK293 cells; for viability at 24 h, 30 μM / viability at 48 h, 30 μM: relative to untreated cells, read-out: Percentage of viable cells observed at 30 μM treatment, HEK293; for EC50 at 24 h / EC50 at 48 h: cytotoxicity
Procedure: (§1) The HepG2 and HEK293 cells were cultured in DMEM media supplemented with 10 % FBS (heat-inactivated), 1 % Pen-strep, and L-glutamine and incubated at 37 °C in humidified air with 5 % CO2 until 85–90 % confluency. The PC12 Tet-Off-SOD1^G85R YFP cells were maintained as described in 4.2. On the day before the experiments, the cells were transferred to white bottom 96 well plates (Greiner cat. 655,083) at a concentration of 50,000 cells/100 μL of media in each well and incubated overnight at 37 °C. Stock solutions of the compounds (30 mM) in DMSO were prepared and then diluted in media to obtain the six final working solutions starting at 30 μM, and serial dilutions were obtained with the lowest concentration at 0.25 μM. The media were removed and fresh media containing the compounds or the vehicle DMSO (0.1 % v/v) were transferred to the plates containing HepG2 and HEK293 cells and the plates were incubated for 24 or 48 h at 37 °C. The PC12 Tet-Off-SOD1^G85R YFP cells compound treatment was performed as described in section 4.2 and using a 9-point 2-fold serial dilution of the compounds starting at 15 μM and the lowest concentration at 0.05 μM. After incubation, the plates were cooled to room temperature and 25 μL of CellTiter-Glo® solution was added to each well. The plates were loaded into a BioTek Synergy H1 MD plate reader and shaken for 2 min, stabilized for 10 min without shaking, and then the luminescence values were read for each well (luminescence integration step 1 ms). Wells containing media with the vehicle DMSO with or without cells were used as controls to represent, respectively, the maximum viability and the lowest viability (background signal) for the cytotoxicity studies with HepG2 and HEK293 cell lines. The viability values for the assay performed with the PC12 Tet-Off-SOD1^G85R YFP cells were normalised for the vehicle (0.1 % DMSO) and (−)-MG-132 alone treatments, which represented respectively the […] viability for the assay.
(§2) The results are presented as an average of three independent experiments, each performed in triplicate, for the cytotoxicity experiments performed with HepG2 and HEK293 cells. The results for the protective screening with the PC12 Tet-Off-SOD1^G85R YFP cells are presented as an average of four replicates.

[2] = Parallel artificial membrane permeability assay - blood brain barrier (PAMPA-BBB); conditions: for Log Pe: PAMPA-BBB, High permeability LogPe > −5.33, No permeability LogPe < −6.14; for Papp at 18 h, 250 μM: pig, PAMPA, pH 7.5
Procedure: A solution of 1 × PBS (pH 7.5) was initially prepared by the dilution of a commercially available 10 × PBS solution. […] A solution of porcine brain lipid (PBL) (20 mg/mL in dodecane) was prepared, and 4 μL of this solution was used to coat the filters on the bottom of the PAMPA donor plates (Sigma Aldrich #MAIPNTR10). After air drying for 20 min, the donor plate wells were charged with 250 μL of the solutions of the test compounds or the controls. The donor plate was then placed over the acceptor plate (Sigma Aldrich #MATRNPS50), in which wells were previously filled with 1 × PBS (2 % DMSO v/v) solution. The PAMPA sandwich was closed with parafilm and incubated at 25 °C for 18 h in a humidity-saturated atmosphere with orbital agitation. […] The UV spectra (250–400 nm) of each well were acquired on a BioTek Synergy H1 MD plate reader equipped with a monochromator at room temperature.
CA(t) is the concentration of the compounds at the final time of incubation on the acceptor well; CD(0) and CD(t) are the concentration of the compounds at the initial time of incubation and at the final time of incubation on the donor well, respectively.

[3] = In vitro cytotoxicity, CellTiter-Glo, HepG2; format: cell-based; conditions: human, HepG2 cells; for viability at 24 h, 30 μM / viability at 48 h, 30 μM: relative to untreated cells, read-out: Percentage of viable cells observed at 30 μM treatment, HepG2; for EC50 at 24 h / EC50 at 48 h: cytotoxicity
Procedure: as §1, §2

HepG2 cells = experiment: In vitro cytotoxicity, CellTiter-Glo, HepG2; format: cell-based; conditions: cytotoxicity EC50 (HepG2, HEK293) versus PC12-SOD1^G85R EC50
Procedure: as §1, §2

BCRP = target: T1, BCRP (Homo sapiens, UniProt Q9UNQ0); experiment: MDCKII-BCRP bidirectional permeability / efflux assay; format: in vitro ADME; conditions: for substrate for the BCRP transporter: based on efflux ratio (> 2.0 = substrate); for Papp A→B at 120 min / Papp B→A at 120 min / efflux ratio at 120 min: dog, MDCKII-BCRP, absence of Ko143
T1 construct: host or cells: MDCKII-BCRP (canine MDR1 knockout, transfected with BCRP)
T1 sequence (Q9UNQ0 1-655): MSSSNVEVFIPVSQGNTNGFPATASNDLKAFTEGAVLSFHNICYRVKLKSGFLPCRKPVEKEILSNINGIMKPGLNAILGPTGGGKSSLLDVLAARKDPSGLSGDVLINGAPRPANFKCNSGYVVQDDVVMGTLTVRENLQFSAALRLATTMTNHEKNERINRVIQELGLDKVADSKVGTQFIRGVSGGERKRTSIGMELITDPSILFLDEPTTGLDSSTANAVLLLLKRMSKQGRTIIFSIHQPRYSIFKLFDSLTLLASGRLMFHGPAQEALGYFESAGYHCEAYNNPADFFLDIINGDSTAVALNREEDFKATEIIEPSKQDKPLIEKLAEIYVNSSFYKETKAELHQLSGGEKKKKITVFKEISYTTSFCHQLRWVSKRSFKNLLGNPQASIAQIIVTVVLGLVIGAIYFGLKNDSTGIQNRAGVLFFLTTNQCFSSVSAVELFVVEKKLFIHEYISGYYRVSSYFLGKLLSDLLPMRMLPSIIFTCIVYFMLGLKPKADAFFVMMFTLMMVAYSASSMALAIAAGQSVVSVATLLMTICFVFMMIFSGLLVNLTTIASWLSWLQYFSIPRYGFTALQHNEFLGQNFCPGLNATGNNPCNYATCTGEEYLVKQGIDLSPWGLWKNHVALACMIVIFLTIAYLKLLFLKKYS
Procedure: For each experiment, the apparent permeability (Papp) for each direction and the efflux ratio (ER) were determined by the equations: Papp(cm/s)=(dQ/dt)/A×Co
Where P(B→A) is the apparent permeability of the compounds from the basal to the apical direction and P(A→B) is the apparent permeability from the apical to basal direction. […] The results are presented as an average of two independent experiments.

[4] = Microsomal metabolic stability, human; format: in vitro ADME; conditions: liver microsomes; for microsomal CLint at 1.1 μM: pH 7.4, 0.5 mg/mL; for half-life at 1.1 μM: pH 7.4, read-out: t1/2 (human)
Procedure: The assay was performed at Jubilant Biosys. Vials containing human or mouse microsomes were collected from the -80 °C freezer and thawed on ice. Then 27.5 μL of the initial microsome solutions (20 mg/mL) were diluted in 971.5 μL of a 67 mM potassium phosphate buffer solution (pH 7.4). The testing compounds were diluted in the buffered microsomal solution to obtain a final concentration of 1.1 μM. Then four different aliquots, each containing 180 μL of the assay solution, representing the samples at T = 0, T = 5, T = 15, and T = 30 min. The samples were pre-incubated at 37 °C for 5 min with gentle shaking, and then 20 μL of a NADPH solution (10 mM) was added to the different solutions of the test compounds. […] An aliquot of the supernatant (200 μL) was collected from each reaction sample and analyzed by LC-MS/MS. The Ln values of the peak area of the compounds to the internal standard over time (min.) were graphed using Excel, and the elimination rates of the compounds (k) were determined from the slopes obtained from the graphs. The k values were used to calculate the compounds half-life using the equation: t1/2=Ln2/k The intrinsic clearance (CLint) of each compound in the presence of mouse and human microsomes was calculated using the equation: […] Verapamil and Ketoconazole were used as controls to evaluate the assay performance. The results are presented as an average of two technical replicates.

| SMILES | viability at 24 h, 30 μM [1] [%] | viability at 48 h, 30 μM [1] [%] | EC50 at 24 h [1] [µM] | EC50 at 48 h [1] [µM] | Log Pe [2] | Papp at 18 h, 250 μM [2] [nm/s] | viability at 24 h, 30 μM [3] [%] | viability at 48 h, 30 μM [3] [%] | EC50 at 24 h [3] [µM] | EC50 at 48 h [3] [µM] | EC50 Fold difference (HepG2 cells) | substrate for the BCRP transporter (BCRP) | Papp A→B at 120 min (BCRP) [nm/s] | Papp B→A at 120 min (BCRP) [nm/s] | efflux ratio at 120 min (BCRP) | microsomal CLint at 1.1 μM [4] [µL/min/mg] | half-life at 1.1 μM [4] [min] |
| --- | --- | --- | --- | --- | --- | --- | --- | --- | --- | --- | --- | --- | --- | --- | --- | --- | --- |
| CC(C)(Oc1cc(C(F)(F)F)cc(C(F)(F)F)c1)C1CC(=O)CC(=O)C1 [Compound 20, 5-(2-(3,5-bis(trifluoromethyl)phenoxy)propan-2-yl)cyclohexane-1,3-dione] | 90 | 91.6 | > 30 | > 30 | −4.94 | 115 ± 6.6 | 96 | 92.3 | > 30 | > 30 | >11 | substrates | 36.2 ± 2.2 | 192 ± 8.8 | 5.32 | 10.4 ± 3.1 | > 120 |
| O=C1CC(=O)CC(/C=C/c2cc(C(F)(F)F)cc(C(F)(F)F)c2)C1 [Compound 6, (E)-5-(3,5-Bis(trifluoromethyl)styryl)cyclohexane-1,3-dione] | 82.6 | 89.6 | > 30 | > 30 | −5.07 | 84.6 ± 1 | 91.9 | 94 | > 30 | > 30 | >14 | substrates | 6.6 ± 1.8 | 315 ± 27.3 | 47.4 | 25.8 ± 1.6 | 53.9 ± 3.3 |
